The record followed here is ChEMBL document CHEMBL2203009, “Synthesis of isoindole and benzoisoindole derivatives of teicoplanin pseudoaglycon with remarkable antibacterial and antiviral activities” (Bioorg Med Chem Lett, 2012).

The test system of data set [1] is Human alphaherpesvirus 1. Kind of data set: Antiviral activity against thymidine kinase deficient and acyclovir-resistant HSV1 KOS infected in HEL cells assessed as inhibition of virus-induced cytopathic effect. Type of data set: functional, organism-based. The following applies: Human alphaherpesvirus 1, KOS.
Data set [2] relates to Human alphaherpesvirus 1. The experiment in a line: Antiviral activity against HSV1 KOS infected in HEL cells assessed as inhibition of virus-induced cytopathic effect. The class given is functional, organism-based. The following applies: Human alphaherpesvirus 1, KOS. (Damage to the host cells serves as the signal in cytopathic effect assays.)
For data set [3], the system named is Vaccinia virus. The experiment in a line: Antiviral activity against Vaccinia virus infected in HEL cells assessed as inhibition of virus-induced cytopathic effect. The following applies: Orthopoxvirus vaccinia. The class given is functional, organism-based.
Data set [4] in a line: Toxicity in HEL cells assessed as induction of cell morphology changes. The class given is cell-based. The following applies: human.
For data set [5], the system named is Vesicular stomatitis virus. The experiment in a line: Antiviral activity against Vesicular stomatitis virus infected in HEL cells assessed as inhibition of virus-induced cytopathic effect. The class given is functional, organism-based.
Data set [6] relates to Human alphaherpesvirus 2. Kind of data set: Antiviral activity against HSV2 G infected in HEL cells assessed as inhibition of virus-induced cytopathic effect. Type of data set: functional, organism-based. The following applies: Human alphaherpesvirus 2, strain G.
For data set [7], the system named is Enterococcus faecalis. Kind of data set: Antimicrobial activity against Enterococcus faecalis 15376 over-expressing vanA. The class given is functional.
Data set [8] has as its system Staphylococcus epidermidis. The experiment in a line: Antimicrobial activity against Staphylococcus epidermidis ATCC 35984 biofilms. Type of data set: functional.
The subject of data set [9] is Enterococcus faecalis. The experiment in a line: Antimicrobial activity against Enterococcus faecalis ATCC 29212. Type of data set: functional.
Data set [10] deals with Enterococcus faecalis. Kind of data set: Antimicrobial activity against Enterococcus faecalis ATCC 51299 over-expressing vanB. Type of data set: functional.
The test system of data set [11] is Staphylococcus epidermidis. The experiment in a line: Antimicrobial activity against Staphylococcus epidermidis over-expressing MecA. Type of data set: functional.
Data set [12] concerns Staphylococcus aureus. Kind of data set: Antimicrobial activity against methicillin-sensitive Staphylococcus aureus ATCC 29213. Type of data set: functional.
Data set [13] has as its system Bacillus subtilis. Kind of data set: Antimicrobial activity against Bacillus subtilis ATCC 6633. The class given is functional.
For data set [14], the system named is Staphylococcus aureus. Kind of data set: Antimicrobial activity against methicillin-resistant Staphylococcus aureus ATCC 33591. Type of data set: functional.
The test system of data set [15] is H3N2 subtype. Kind of data set: Antiviral activity against Influenza A virus (A/Hong Kong/7/1987(H3N2)) […] infected in MDCK cells assessed as inhibition of virus-induced cytopathic effect. The class given is functional, organism-based.
Data set [16] has as its system Influenza A virus. Kind of data set: Antiviral activity against Influenza A virus (A/Puerto Rico/8/1934(H1N1)) H1N1 infected in MDCK cells assessed as inhibition of virus-induced cytopathic effect. Type of data set: functional, organism-based.
The test system of data set [17] is Influenza B virus. Kind of data set: Antiviral activity against Influenza B virus (B/Hong Kong/05/1972) […] infected in MDCK cells assessed as inhibition of virus-induced cytopathic effect. Type of data set: functional, cell-based. The following applies: B/Hong Kong/05/1972, MDCK.
Data set [18] in a line: Toxicity in MDCK cells assessed as induction of cell morphology changes. The class given is cell-based, Canis lupus familiaris. The following applies: dog.

pEC50: −log10 of the molar value. In brackets after ≈: the same amount, converted by molar mass.

As a reminder, the pEC50 is the EC50 on a negative log10 scale, so that one unit is a factor of ten. For `O=c1[nH]c(=O)n([C@H]2C[C@H](O)[C@@H](CO)O2)cc1/C=C/Br` [BRIVUDINE], the pEC50 in data set [1] is 4.30; in data set [2], 7.62; in [3] it was 5.00; in [5], less than 3.60; in data set [6] it was 3.70. The MCC in [4] is more than 250 µM.
Take `CC(=O)N[C@@H]1[C@H](Oc2c3cc4cc2Oc2ccc(cc2Cl)[C@@H](O[C@@H]2O[C@@H](CO)[C@@H](O)[C@H](O)[C@@H]2NC(C)=O)[C@@H]2NC(=O)[C@H](NC(=O)[C@@H]4NC(=O)[C@H]4NC(=O)[C@@H](Cc5ccc(c(Cl)c5)O3)NC(=O)[C@H](N)c3ccc(O)c(c3)Oc3cc(O)cc4c3)c3ccc(O)c(c3)-c3c(O[C@H]4O[C@H](CO)[C@@H](O)[C@@H](O)[C@@H]4O)cc(O)cc3[C@@H](C(=O)O)NC2=O)O[C@@H](CO)[C@@H](O)[C@@H]1O`: the MBC in data set [7] stood at 256 µg/mL (≈ 145 µM); in data set [8], 16 µg/mL (≈ 9.05 µM); in data set [9] it was 64 µg/mL (≈ 36.2 µM); in [10], 256 µg/mL (≈ 145 µM); in [11] it was 32 µg/mL (≈ 18.1 µM); in data set [12], 2 µg/mL (≈ 1.13 µM). Besides, the MBC in [13] was found to be 16 µg/mL (≈ 9.05 µM); in [14], 2 µg/mL (≈ 1.13 µM). Moreover, the MIC in data set [7] turned out to be 256 µg/mL (≈ 145 µM); in data set [8], 2 µg/mL (≈ 1.13 µM); in [9] it was 2 µg/mL (≈ 1.13 µM); in data set [10] it was 4 µg/mL (≈ 2.26 µM); in data set [11] it was 8 µg/mL (≈ 4.53 µM); in data set [12], 0.5 µg/mL (≈ 0.283 µM). Moreover, the MIC in data set [13] and in data set [14] was 0.5 µg/mL (≈ 0.283 µM) throughout.
Regarding `Nc1nc2c(ncn2COCCO)c(=O)[nH]1` [ACYCLOVIR], the pEC50 was 4.36 in data set [1]; 6.85 in data set [2]; not above 3.60 in [3]; less than 3.60 in [5]; 6.85 in data set [6]. The MCC in data set [4] was more than 250 µM.
Consider `Nc1ccn(C[C@@H](CO)OCP(=O)(O)O)c(=O)n1` [CIDOFOVIR], for which the pEC50 in data set [1] was 5.82; in data set [2], 5.82; in [3], 4.68; in data set [5], less than 3.60; in data set [6], 6.05. Moreover, in data set [4], the MCC was more than 250 µM.
As to `Nc1nc2c(ncn2COC(CO)CO)c(=O)[nH]1` [GANCICLOVIR], the pEC50 was 5.40 in data set [1]; 7.82 in data set [2]; less than 4.00 in data set [3]; less than 4.00 in [5]; 7.89 in [6]. Further, in data set [4], the MCC is more than 100 µM.
As to `CC(=O)N[C@H]1[C@H]([C@H](O)[C@H](O)CO)OC(C(=O)O)=C[C@@H]1NC(=N)N` [ZANAMIVIR], the figures for the pEC50 in data set [15], in [16] and in data set [17] were 5.32, 5.80 and 4.64, respectively. In addition, the MCC in data set [18] was more than 100 µM.
As for `CC(N)C12CC3CC(CC(C3)C1)C2` (centres undefined) [RIMANTADINE], the pEC50 in [15] was 7.29; in data set [16], 4.85; in data set [17] it was less than 3.30.
For `CC(=O)N[C@H]1[C@H](O[C@@H]2c3ccc(c(Cl)c3)Oc3cc4cc(c3O)Oc3ccc(cc3Cl)C[C@H]3NC(=O)[C@H](N)c5ccc(O)c(c5)Oc5cc(O)cc(c5)[C@H](NC3=O)C(=O)N[C@H]4C(=O)N[C@H]3C(=O)N[C@@H]2C(=O)N[C@H](C(=O)O)c2cc(O)cc(O)c2-c2cc3ccc2O)O[C@H](CO)[C@@H](O)[C@@H]1O`, the pEC50 in [1] was less than 4.00; in data set [2], less than 4.00; in data set [15] it was 4.77; in data set [3], less than 4.00; in [16], 4.64; in data set [17], less than 4.00. For the same compound, the pEC50 in data set [5] and in data set [6] was less than 4.00 throughout. For the same compound, the values for the MCC in [4] and in data set [18] were more than 100 µM and not below 100 µM, respectively.
With `NC(=O)c1ncn([C@@H]2O[C@H](CO)[C@@H](O)[C@H]2O)n1` [RIBAVIRIN], the figures for the pEC50 in [15], in data set [16] and in data set [17] were 5.22, 5.21 and 5.34, respectively.
`NC12CC3CC(CC(C3)C1)C2` [AMANTADINE]: the pEC50 in data set [15] is 6.35; in [16], 3.67; in data set [17], less than 3.30. Also, the MCC in data set [18] was not below 500 µM.
